Laboratory results taken from US5786349A, “Method for treating chlamydia infectious diseases by rifamycin derivative” (Kaneka Corporation, priority 1995, dated 1998).
≈ marks a conversion by molar mass, not a printed value. Where “and” joins values, the source holds several entries; their conditions need not be identical. Equal values may be shown once.

Key:
[1] = system: Chlamydia pneumoniae TW-183; test: In vitro test 3: inhibition of inclusion formation in HeLa 229 cells, about 5 times the inoculum of test 2, C. pneumoniae TW-183; conditions: TW183, 72 h, read-out: Minimum inhibitory concentration TW-183
[2] = system: Chlamydia pneumoniae AR-39; test: In vitro test 3: inhibition of inclusion formation in HeLa 229 cells, about 5 times the inoculum of test 2, C. pneumoniae AR-39; conditions: AR39, 72 h, read-out: Minimum inhibitory concentration AR-39
[3] = system: Chlamydia pneumoniae AR-39; test: Infection-therapy test: mouse pneumonia model; conditions: 1 mg/kg/day i.p. for 3 days
[4] = system: Chlamydia trachomatis D/UW-3/Cx; test: In vitro test 1: inhibition of inclusion formation in HeLa 229 cells (Japan Society of Chemotherapy standard method), C. trachomatis D/UW-3/Cx; conditions: rifampicin vs compound 4
[5] = system: Chlamydia trachomatis F/UW-6/Cx; test: In vitro test 1: inhibition of inclusion formation in HeLa 229 cells (Japan Society of Chemotherapy standard method), C. trachomatis F/UW-6/Cx; conditions: rifampicin vs compound 4

Structure (SMILES) | MIC [1] [ng/mL] | MIC [2] [ng/mL] | further results
COC1C=COC2(C)Oc3c(C)c(O)c4c(=O)c(c5oc6cc(N7CCN(CC(C)C)CC7)cc(O)c6nc-5c4c3C2=O)NC(=O)C(C)=CC=CC(C)C(O)C(C)C(O)C(C)C(OC(C)=O)C1C (centres unmarked) [Compound 4] | 1.25 (≈ 1.33 nM) | 1.25 (≈ 1.33 nM) | Mice from which Chlamydia was reisolated from the lung/tested mice ([3]; 2 days after infection): 3/3; Mice from which Chlamydia was reisolated from the lung/tested mice ([3]; 7 days after infection (3 days after completion of treatment), 1 mg/kg/day): only one mouse in a group of 5 mice and 1/5; Mice from which Chlamydia was reisolated from the lung/tested mice ([3]; 9 days after infection (5 days after completion of treatment)): 0/5; Mice from which Chlamydia was reisolated from the lung/tested mice ([3]; 14 days after infection (10 days after completion of treatment)): 0/5; Mice from which Chlamydia was reisolated from the lung/tested mice ([3]; 19 days after infection (15 days after completion of treatment)): 0/5; reisolation of organisms ([3]; after the 5th day from completion of treatment): no reisolation of organisms was observed; death of mice ([3]; treatment group): no death of the treatment group of mice was observed
CO[C@H]1/C=C/O[C@@]2(C)Oc3c(C)c(O)c4c(O)c(c(/C=N/N5CCN(C)CC5)c(O)c4c3C2=O)NC(=O)/C(C)=C\C=C\[C@H](C)[C@H](O)[C@@H](C)[C@@H](O)[C@@H](C)[C@H](OC(C)=O)[C@@H]1C [rifampicin] |  |  | MIC as multiple of the concentration for the compound 4 [4]: about 30 times; MIC as multiple of the concentration for the compound 4 [5]: about 30 times
COC1C=COC2(C)Oc3c(C)c(O)c4c(=O)c(c5oc6cc(N7CCN(CC8OCCO8)CC7)cc(O)c6nc-5c4c3C2=O)NC(=O)C(C)=CC=CC(C)C(O)C(C)C(O)C(C)C(OC(C)=O)C1C (centres unmarked) | 2.5 (≈ 2.57 nM) | 0.63 (≈ 0.649 nM) | 
CC[C@H]1OC(=O)[C@H](C)[C@@H](O[C@H]2C[C@@](C)(OC)[C@@H](O)[C@H](C)O2)[C@H](C)[C@@H](O[C@@H]2O[C@H](C)C[C@H](N(C)C)[C@H]2O)[C@](C)(O)C[C@@H](C)CN(C)[C@H](C)[C@@H](O)[C@]1(C)O [Azithromycin, reference compound] | 250 (≈ 334 nM) | 500 (≈ 668 nM) | 
COC1C=COC2(C)Oc3c(C)c(O)c4c(=O)c(c5oc6cc(N7CCOCC7)cc(O)c6nc-5c4c3C2=O)NC(=O)C(C)=CC=CC(C)C(O)C(C)C(O)C(C)C(OC(C)=O)C1C (centres unmarked) [Compound 1] | 0.63 (≈ 0.711 nM) | 1.25 (≈ 1.41 nM) | 
CCCN1CCN(c2cc(O)c3nc4c5c6c7c(C)c(O)c5c(=O)c(c-4oc3c2)NC(=O)C(C)=CC=CC(C)C(O)C(C)C(O)C(C)C(OC(C)=O)C(C)C(OC)C=COC(C)(O7)C6=O)CC1 (centres unmarked) [Compound 3] | 5 (≈ 5.39 nM) | 1.25 (≈ 1.35 nM) | 
COC1C=COC2(C)Oc3c(C)c(O)c4c(=O)c(c5oc6cc(N7CCN(CC(C)C)CC7)cc(O)c6nc-5c4c3C2=O)NC(=O)C(C)=CC=CC(C)C(O)C(C)C(O)C(C)C(O)C1C (centres unmarked) [Compound 5] | 1.25 (≈ 1.39 nM) | 2.5 (≈ 2.78 nM) | 
COC1C=COC2(C)Oc3c(C)c(O)c4c(=O)c(c5oc6cc(N7CCN(C)CC7)cc(O)c6nc-5c4c3C2=O)NC(=O)C(C)=CC=CC(C)C(O)C(C)C(O)C(C)C(OC(C)=O)C1C (centres unmarked) [Compound 2] | 0.63 (≈ 0.701 nM) | 0.16 (≈ 0.178 nM) | 
